Results published in patent publication US20080085264A1, “METHODS FOR ENHANCING STEM CELL ENGRAFTMENT DURING TRANSPLANTATION” (priority 2003, published 2008).

How the values were obtained:
CD26/DPPIV = target: T1, CD26/DPPIV (Mus musculus, UniProt P28843); test: CD26/DPPIV peptidase activity of C57BL/6 BM cells (Gly-Pro-pNA); format: cell-based
T1 construct: endogenous in cells; host or cells: sorted mouse (C57BL/6) bone marrow cells
Method: Proteolytic activity was determined by measurement of the amount of p-nitroanilide (pNA) formed in the supernatant at 405 nm. One thousand cells per well in the 96-well flat-bottomed plate were incubated at 37° C. with 4 mM Gly-Pro-pNA in 100 μL PBS buffer (pH 7.4) containing 10 mg/ml BSA. Absorbance was measured at 405 nm on a microplate spectrofluorometer (SpectraMax 190, Molecular Devices, Sunnyvale, Calif.) every two minutes and pmoles of pNA formed were calculated by comparison to a pNA standard curve. The results were plotted as pmoles pNA versus minutes and the slope was calculated at the linear portion of the curve giving a measure of DPPIV activity expressed as pmoles/min (U) per 1000 cells. Tests were run using three separate samples (n=3 for each sample); cell-free blanks, substrate-free blanks were run in parallel.

[1] = tested on: Sca-1+c-kit+lin- mBM cells; test: Chemotaxis assay, CXCL12 induced migration of sorted Sca-1+c-kit+lin- mBM cells; format: cell-based, mouse; settings: 5 mM Diprotin A
Method: (§1) Chemotaxis assays were performed using 96-well chemotaxis chambers (NeuroProbe, Gaithersburg, Md.) in accordance with manufacturer's instructions as described previously with minor variations (Christopherson K W, 2nd, et al. J Immunol. 2002; 169:7000-7008; Christopherson K W, 2nd, et al. Blood. 2001; 98:3562-3568; Christopherson K, 2nd, et al. Immunol Lett. 1999; 69:269-273). Briefly 300 μl of RPMI supplemented with 10% FBS and either 0, 100, 200, and 400 ng/ml of mouse CXCL12 chemokine was added to the lower chamber. Ten-thousand sorted cells in 50 μL of media were added to the upper side of the membrane (5.7 mm diameter, 5 μm pore size, polycarbonate membrane.)
(§2) Total cell number in the lower well was obtained by counting using hemocytometer after 4 hours of incubation at 37° C., 5% CO2. Percent migration was calculated by dividing the number of the cells in the lower well by the total cell input multiplied by 100 and subtracting random migration (always less than 5%) to the lower chamber without chemokine presence. Three samples were analyzed separately in triplicate, and then the data averaged for statistical analysis.
The N-terminal truncated mouse CXCL12 (CXCL12 (amino acids 3-68)) was produced by treatment of mouse CXCL12 with DPPIV (Enzyme Systems Products, Livermore, Calif.) for 18 hrs at 37° C. in PBS pH 7.4. […]

BoyJ recipient mice = test: Short-term homing of donor Sca-1+lin- cells to recipient bone marrow; format: in vivo, mouse
Method: Control C57BL/6 (CD45.2^+), CD26 inhibitor treated C57BL/6 (CD45.2^+), or CD26^−/− (CD45.2^+) sorted Sca-1^+lin^− or LD donor BM cells were transplanted by tail-vein injection into lethally irradiated (1100 cGy split dose) congenic BoyJ (CD45.1^+) female recipient mice (Haneline L S, et al. Blood. 1999; 94:1-8.) Contribution of Sca^+lin^− donor cells in the context of Sca-1^+lin^− recipient cells was calculated by flow cytometric analysis of cells found in the recipient mouse BM by measuring CD45.1+ and CD45.2^+ on Sca-1^+lin^− LD cells isolated from the recipient mice 24 hours post transplant. […] Comparisons between treatment groups were made using a two-tailed Student's t-test and data was plotted as mean (M)±standard error of the mean (SEM).

[2] = tested on: Sca-1+lin- mouse BM cells; test: Chemotaxis assay, CXCL12 induced migration of Sca-1+lin- mouse BM cells; format: cell-based
Method: as §1, §2
Inhibition of endogenous CD26/DPPIV activity was accomplished by pretreatment of cells with 5 mM Diprotin A (Peptides International, Louisville, Ky.) for 15 minutes at 37° C. Diprotin A was allowed to remain in the chemotaxis chamber during the assay. […]

C57BL/6 mice = test: G-CSF induced mobilization of HSC/HPC in C57BL/6 mice (progenitor cell assays of peripheral blood); format: in vivo; settings: 5 μmol/mouse 2×/day s.c. alone, without G-CSF

T1 sequence (P28843 whole entry): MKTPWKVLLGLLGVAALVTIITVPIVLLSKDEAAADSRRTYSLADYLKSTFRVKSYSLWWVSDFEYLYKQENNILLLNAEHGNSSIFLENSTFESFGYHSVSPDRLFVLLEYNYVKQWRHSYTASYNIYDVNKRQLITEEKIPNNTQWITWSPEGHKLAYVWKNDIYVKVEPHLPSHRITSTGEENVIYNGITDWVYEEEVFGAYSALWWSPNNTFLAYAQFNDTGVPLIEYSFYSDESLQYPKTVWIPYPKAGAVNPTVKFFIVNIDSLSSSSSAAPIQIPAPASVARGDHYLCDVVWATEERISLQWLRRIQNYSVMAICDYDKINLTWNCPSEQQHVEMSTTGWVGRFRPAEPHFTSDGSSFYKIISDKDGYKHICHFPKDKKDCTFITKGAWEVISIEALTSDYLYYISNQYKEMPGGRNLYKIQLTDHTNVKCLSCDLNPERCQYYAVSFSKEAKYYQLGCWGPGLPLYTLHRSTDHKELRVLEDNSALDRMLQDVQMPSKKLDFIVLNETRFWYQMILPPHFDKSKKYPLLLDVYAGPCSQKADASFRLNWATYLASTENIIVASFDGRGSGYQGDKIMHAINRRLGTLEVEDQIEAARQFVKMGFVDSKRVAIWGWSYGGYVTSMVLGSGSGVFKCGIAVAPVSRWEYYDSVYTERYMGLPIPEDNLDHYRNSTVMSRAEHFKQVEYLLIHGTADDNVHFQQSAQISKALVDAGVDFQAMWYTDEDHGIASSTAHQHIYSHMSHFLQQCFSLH

Ile-Pro-Ile [Diprotin A]
CD26 peptidase activity with inhibitor treatment (CD26/DPPIV; C57BL/6 BM cells, P<0.01): rapidly lost | recovery of CD26 activity begins, time post treatment (CD26/DPPIV; cells washed 15 minutes post inhibitor treatment): within four hours | enhancement in migration ([1]; 100 ng/ml CXCL12): two-fold | increase in total cell migration ([1]; 200 and 400 ng/ml CXCL12): 1.7 fold | increase in homing efficiency (BoyJ recipient mice; 1×10^4 sorted Sca-1+lin- BM C57Bl/6 donor cells treated 15 minutes prior to transplant, vs untreated cells): 9 fold | short-term homing of donor cells (BoyJ recipient mice; donor LDBM unit treated prior to transplant, P<0.01, n=6): significant increase in short-term homing | increase in CXCL12-induced migratory response ([2]; Diprotin A treated Sca-1+lin- BM cells from C57BL/6 mice): two-fold | effect on CXCL12-induced migration of CD26-/- cells ([2]; Diprotin A treatment of CD26-/- Sca-1+lin- cells compared to untreated CD26-/- cells): no further enhancing effect | effect on the mobilization of progenitors, inhibitor alone (C57BL/6 mice): little or no effect
